In patent publication US9221834B2 (Merck Sharp & Dohme Corp., priority 2010, dated 2015):

Target: T1, recombinant CETP (rCETP) (Homo sapiens, UniProt P11597)
T1 sequence (P11597 18-493): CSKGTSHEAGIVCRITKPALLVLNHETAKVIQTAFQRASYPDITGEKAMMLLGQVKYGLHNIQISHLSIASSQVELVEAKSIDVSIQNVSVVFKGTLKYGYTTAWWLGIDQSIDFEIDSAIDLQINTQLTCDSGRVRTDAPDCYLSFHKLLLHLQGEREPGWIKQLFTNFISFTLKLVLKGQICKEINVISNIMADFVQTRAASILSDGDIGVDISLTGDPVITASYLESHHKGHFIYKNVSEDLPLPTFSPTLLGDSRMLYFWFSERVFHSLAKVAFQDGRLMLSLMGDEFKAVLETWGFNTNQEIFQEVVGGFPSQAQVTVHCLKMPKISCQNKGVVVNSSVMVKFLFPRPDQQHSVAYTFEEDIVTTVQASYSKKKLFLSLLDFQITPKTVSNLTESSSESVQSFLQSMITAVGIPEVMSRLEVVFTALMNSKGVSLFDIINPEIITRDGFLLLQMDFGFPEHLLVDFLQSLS
Assay: RTA assay using recombinant CETP (2% RTA)
Format: biochemical
Conditions: RTA assay in 2% human serum; read-out: IC50
Method: In Vitro Radioactive Assays of CETP-Catalyzed CE and TG Transfer (RTA Assay)
Reagents and sources are: [3H] cholesteryl oleate (GE #TRK.886), [3H]
Both assays measure the transfer of [3H] cholesteryl oleate or [3H]triolein from exogenous LDL to HDL.
After a brief vortex, the solution is sonicated until clear and mixed with 20 mL of fresh human serum. The mixture is incubated overnight at 37° C. […] Once isolated the particles are dialyzed 3× in CETP buffer (50 mM Tris, pH 7.4, 100 mM NaCl, 1 mM EDTA). Human HDL is purchased from Intracel and used as the acceptor particles.
Transfer assays are performed in a 96-well v-bottom polypropylene plate. […] 1 μL of each test compound diluted in DMSO is added to 47 μL of assay cocktail per well and incubated at 37° C. for 1 hour. To initiate the transfer reaction, 2 μL radiolabeled LDL is added. After an additional 60 min of incubation at 37° C., the transfer action is terminated by precipitation of LDL with an equal volume of 20% W/V PEG 8000. The plates are centrifuged at 2000 rpm for 30 minutes at 4° C. A 40 μL aliquot of the HDL-containing supernatant is transferred to a Packard Optiplate with 200 μL of MicroScint 20. After mixing, plates are counted by liquid scintillation. Counts present in the supernatant for blanks (wells containing only HDL acceptor, CETP buffer and DMSO) are subtracted from those containing test compounds and used to correct for non-specific transfer.
Comparison of the counts of samples with inhibitors to an uninhibited (DMSO only) positive control yield a percent inhibition. A plot of percent inhibition vs. log of inhibitor concentration, fit to a Sigmoidal 4 parameter equation is used to calculate IC50.

Going from `COc1ccc([C@H]2CC[C@H](C(=O)O)CC2)cc1-c1ccc(N2CCC2)nc1CN1C(=O)O[C@H](c2cc(C(F)(F)F)cc(C(F)(F)F)c2)[C@@H]1C` [Example 73] to `COc1ccc([C@H]2C[C@@H](C(=O)O)C2)cc1-c1ccc(N2CCC2)nc1CN1C(=O)O[C@H](c2cc(C(F)(F)F)cc(C(F)(F)F)c2)[C@@H]1C` [Example 89], the IC50 rises from 8 nM to 29 nM (3.6-fold). The first is the more potent here.

Going from `C[C@H]1[C@@H](c2cc(C(F)(F)F)cc(C(F)(F)F)c2)OC(=O)N1Cc1nc(N2CCC2)ccc1-c1cc(CCC(=O)O)ccc1Cl` [Example 74] to `COc1ccc(CC(=O)O)cc1-c1ccc(N2CCC2)nc1CN1C(=O)O[C@H](c2cc(C(F)(F)F)cc(C(F)(F)F)c2)[C@@H]1C` [Example 80], the IC50 rises from 9 nM to 36 nM (4-fold).

Compared with `COc1ccc([C@H]2C[C@@H]2C(=O)O)cc1-c1ccc(N2CCC2)nc1CN1C(=O)O[C@H](c2cc(C(F)(F)F)cc(C(F)(F)F)c2)[C@@H]1C` [Example 75], `COc1ccc([C@H]2C[C@H](C(=O)O)C2)cc1-c1ccc(N2CCC2)nc1CN1C(=O)O[C@H](c2cc(C(F)(F)F)cc(C(F)(F)F)c2)[C@@H]1C` [Example 90] is 1.5-fold lower in IC50: 9 nM for the first, 6 nM for the second. The second is the more potent here.

First: COc1ccc(CC(=O)O)cc1-c1c(C)cc(N2CCC2)nc1CN1C(=O)O[C@H](c2cc(C(F)(F)F)cc(C(F)(F)F)c2)[C@@H]1C [Example 76]
Second: COc1ccc([C@H]2C[C@@H](C(=O)O)C2)cc1-c1c(C)cc(N2CCC2)nc1CN1C(=O)O[C@H](c2cc(C(F)(F)F)cc(C(F)(F)F)c2)[C@@H]1C [Example 96]
The IC50 of the first is 1.8-fold higher: 14 nM for the first, 8 nM for the second.

Going from `COc1ccc(C(C)(C)CC(=O)O)cc1-c1ccc(N2CCC2)nc1CN1C(=O)O[C@H](c2cc(C(F)(F)F)cc(C(F)(F)F)c2)[C@@H]1C` [Example 77] to `COc1ccc([C@H]2C[C@@H](CC(=O)O)C2)cc1-c1ccc(N2CCC2)nc1CN1C(=O)O[C@H](c2cc(C(F)(F)F)cc(C(F)(F)F)c2)[C@@H]1C` [Example 91], the IC50 falls from 15 nM to 10 nM (1.5-fold). The second is the more potent here.

Going from `COc1cc2c(cc1-c1ccc(N3CCC3)nc1CN1C(=O)O[C@H](c3cc(C(F)(F)F)cc(C(F)(F)F)c3)[C@@H]1C)C(CC(=O)O)CC2` (some centres unmarked) [Example 78] to `COc1cc(F)c([C@H]2C[C@@H](C(=O)O)C2)cc1-c1ccc(N2CCC2)nc1CN1C(=O)O[C@H](c2cc(C(F)(F)F)cc(C(F)(F)F)c2)[C@@H]1C` [Example 103], the IC50 rises from 18 nM to 31 nM (1.7-fold). The first is the more potent here.

Going from `COc1cc(F)c(CCC(=O)O)cc1-c1ccc(N2CCC2)nc1CN1C(=O)O[C@H](c2cc(C(F)(F)F)cc(C(F)(F)F)c2)[C@@H]1C` [Example 79] to `COc1cc(F)c([C@H]2C[C@H](C(=O)O)C2)cc1-c1ccc(N2CCC2)nc1CN1C(=O)O[C@H](c2cc(C(F)(F)F)cc(C(F)(F)F)c2)[C@@H]1C` [Example 104], the IC50 falls from 18 nM to 4 nM (4.5-fold).

Going from `COc1ccc([C@H]2CC[C@H](C(=O)O)CC2)cc1-c1ccc(N2CCC2)nc1CN1C(=O)O[C@H](c2ccc(F)c(F)c2)[C@@H]1C` [Example 81] to `COc1ccc([C@H]2CC[C@H](C(=O)O)CC2)cc1-c1ccc(N2CCC2)nc1CN1C(=O)O[C@H](c2cc(F)c(F)c(F)c2)[C@@H]1C` [Example 101], the IC50 falls from 161 nM to 37 nM (4.4-fold).

First: COc1ccc(CCC(=O)O)cc1-c1ccc(N2CCC2)nc1CN1C(=O)O[C@H](c2cc(F)cc(F)c2)[C@@H]1C [Example 82]
Second: COc1ccc(CCC(=O)O)cc1-c1ccc(N2CCC2)nc1CN1C(=O)O[C@H](c2cc(F)c(F)c(F)c2)[C@@H]1C [Example 98]
The IC50 of the first is 2.2-fold higher: 484 nM for the first, 223 nM for the second. The second is the more potent here.

First: COc1ccc([C@@H]2C[C@H]2C(=O)O)cc1-c1ccc(N2CCC2)nc1CN1C(=O)O[C@H](c2cc(F)cc(F)c2)[C@@H]1C [Example 83]
Second: COc1ccc([C@H]2C[C@@H]2C(=O)O)cc1-c1ccc(N2CCC2)nc1CN1C(=O)O[C@H](c2cc(F)cc(F)c2)[C@@H]1C [Example 84]
The IC50 of the first is 1.8-fold higher: 134 nM for the first, 73 nM for the second.

Compared with `COc1ccc([C@H]2CC[C@H](C(=O)O)CC2)cc1-c1ccc(N2CCC2)nc1CN1C(=O)O[C@H](c2cc(F)cc(F)c2)[C@@H]1C` [Example 85], `COc1cc2c(cc1-c1ccc(N3CCC3)nc1CN1C(=O)O[C@H](c3cc(F)cc(F)c3)[C@@H]1C)[C@H](CC(=O)O)CC2` [Example 86] is 4.9-fold higher in IC50: 84 nM for the first, 415 nM for the second. The first is the more potent here.

`COc1cc(F)c(-c2ccc(C(=O)O)cc2C)cc1-c1ccc(N2CCC2)nc1CN1C(=O)O[C@H](c2cc(F)cc(F)c2)[C@@H]1C` [Example 87] and `COc1cc(F)c(-c2ccc(C(=O)O)cc2C)cc1-c1ccc(N2CCC2)nc1CN1C(=O)O[C@H](c2cc(F)c(F)c(F)c2)[C@@H]1C` [Example 102] are within 1.5-fold of each other in IC50: 7 nM for the first, 8 nM for the second.

Compared with `CCc1ccc([C@@H]2C[C@H]2C(=O)O)cc1-c1ccc(N2CCC2)nc1CN1C(=O)O[C@H](c2cc(C(F)(F)F)cc(C(F)(F)F)c2)[C@@H]1C` [Example 88], `COc1ccc([C@H]2C[C@H](CC(=O)O)C2)cc1-c1ccc(N2CCC2)nc1CN1C(=O)O[C@H](c2cc(C(F)(F)F)cc(C(F)(F)F)c2)[C@@H]1C` [Example 92] is 1.8-fold lower in IC50: 9 nM for the first, 5 nM for the second.

Compared with `COc1ccc(-c2cc(C(=O)O)on2)cc1-c1ccc(N2CCC2)nc1CN1C(=O)O[C@H](c2cc(C(F)(F)F)cc(C(F)(F)F)c2)[C@@H]1C` [Example 93], `COc1ccc(-c2ccc(C(=O)O)o2)cc1-c1ccc(N2CCC2)nc1CN1C(=O)O[C@H](c2cc(C(F)(F)F)cc(C(F)(F)F)c2)[C@@H]1C` [Example 112] is 10-fold higher in IC50: 18 nM for the first, 184 nM for the second. The first is the more potent here.

Compared with `COc1ccc(-c2nn(C)c(C(=O)O)c2C)cc1-c1ccc(N2CCC2)nc1CN1C(=O)O[C@H](c2cc(C(F)(F)F)cc(C(F)(F)F)c2)[C@@H]1C` [Example 94], `COc1ccc(-c2c(C)cc(C(=O)O)n2C)cc1-c1ccc(N2CCC2)nc1CN1C(=O)O[C@H](c2cc(C(F)(F)F)cc(C(F)(F)F)c2)[C@@H]1C` [Example 119] is 2.4-fold lower in IC50: 12 nM for the first, 5 nM for the second.

`COc1ccc(-c2cnc(C(=O)O)cn2)cc1-c1ccc(N2CCC2)nc1CN1C(=O)O[C@H](c2cc(C(F)(F)F)cc(C(F)(F)F)c2)[C@@H]1C` [Example 95] and `COc1ccc(-c2ncc(C(=O)O)s2)cc1-c1ccc(N2CCC2)nc1CN1C(=O)O[C@H](c2cc(C(F)(F)F)cc(C(F)(F)F)c2)[C@@H]1C` [Example 114] are within 1.5-fold of each other in IC50: 34 nM for the first, 50 nM for the second.

Going from `COc1ccc([C@H]2C[C@H](C(=O)O)C2)cc1-c1c(C)cc(N2CCC2)nc1CN1C(=O)O[C@H](c2cc(C(F)(F)F)cc(C(F)(F)F)c2)[C@@H]1C` [Example 97] to `COc1ccc(-c2sc(C(=O)O)cc2C)cc1-c1ccc(N2CCC2)nc1CN1C(=O)O[C@H](c2cc(C(F)(F)F)cc(C(F)(F)F)c2)[C@@H]1C` [Example 106], the IC50 rises from 4 nM to 12 nM (3-fold).

`COc1ccc(-c2ccc(C(=O)O)s2)cc1-c1ccc(N2CCC2)nc1CN1C(=O)O[C@H](c2cc(C(F)(F)F)cc(C(F)(F)F)c2)[C@@H]1C` [Example 105] and `COc1ccc(-c2csc(C(=O)O)c2)cc1-c1ccc(N2CCC2)nc1CN1C(=O)O[C@H](c2cc(C(F)(F)F)cc(C(F)(F)F)c2)[C@@H]1C` [Example 107] are within 1.5-fold of each other in IC50: 51 nM for the first, 72 nM for the second.

First: COc1ccc(-c2csc(C(=O)O)c2C)cc1-c1ccc(N2CCC2)nc1CN1C(=O)O[C@H](c2cc(C(F)(F)F)cc(C(F)(F)F)c2)[C@@H]1C [Example 108]
Second: COc1ccc(-c2csc(C(=O)O)c2OC)cc1-c1ccc(N2CCC2)nc1CN1C(=O)O[C@H](c2cc(C(F)(F)F)cc(C(F)(F)F)c2)[C@@H]1C [Example 110]
The IC50 of the first is 8.8-fold lower: 5 nM for the first, 44 nM for the second.

Going from `COc1ccc(-c2cc(C(=O)O)sc2C)cc1-c1ccc(N2CCC2)nc1CN1C(=O)O[C@H](c2cc(C(F)(F)F)cc(C(F)(F)F)c2)[C@@H]1C` [Example 109] to `COc1ccc(-c2nc(C)c(C(=O)O)s2)cc1-c1ccc(N2CCC2)nc1CN1C(=O)O[C@H](c2cc(C(F)(F)F)cc(C(F)(F)F)c2)[C@@H]1C` [Example 116], the IC50 rises from 9 nM to 77 nM (8.6-fold).

First: COc1ccc(-c2sc(C(=O)O)c(C)c2C)cc1-c1ccc(N2CCC2)nc1CN1C(=O)O[C@H](c2cc(C(F)(F)F)cc(C(F)(F)F)c2)[C@@H]1C [Example 111]
Second: COc1ccc(-c2ncc(C(=O)O)n2C)cc1-c1ccc(N2CCC2)nc1CN1C(=O)O[C@H](c2cc(C(F)(F)F)cc(C(F)(F)F)c2)[C@@H]1C [Example 117]
The IC50 of the first is 5-fold lower: 5 nM for the first, 25 nM for the second. The first is the more potent here.

Going from `COc1ccc(-c2cc(C(=O)O)co2)cc1-c1ccc(N2CCC2)nc1CN1C(=O)O[C@H](c2cc(C(F)(F)F)cc(C(F)(F)F)c2)[C@@H]1C` [Example 113] to `COc1ccc(-c2nc(C(=O)O)cs2)cc1-c1ccc(N2CCC2)nc1CN1C(=O)O[C@H](c2cc(C(F)(F)F)cc(C(F)(F)F)c2)[C@@H]1C` [Example 115], the IC50 rises from 29 nM to 285 nM (9.8-fold).
